Test results published in paper PMC10987480, “Biological and mutational analyses of CXCR4–antagonist interactions and design of new antagonistic analogs” (Bioscience Reports, 2023).
pIC50: −log10 of the molar value. Positions of bridges follow the written chain, without caps; N, C: chain ends. Non-standard residues stand in square brackets, D forms with d. Residues, ends and D or L forms follow the SMILES beside them. Chains are numbered I, II in the order given. No end group written: not given here. 2Nal = N[C@@H](Cc1ccc2ccccc2c1)C(=O)O; Lys(iPr) = CC(C)NCCCC[C@H](N)C(=O)O

What was measured:
CXCR4 N119A = target: T1, CXCR4 N119A (Homo sapiens, UniProt P61073, N119A); assay: Competitive binding to CXCR4 mutant N119A (12G5, CHO cells); details: TM3, class of reduction vs wild-type CXCR4, 12G5 competition, averages of at least three independent experiments
T1 construct: expressed in transfected cells
T1 sequence (P61073 whole entry N119A): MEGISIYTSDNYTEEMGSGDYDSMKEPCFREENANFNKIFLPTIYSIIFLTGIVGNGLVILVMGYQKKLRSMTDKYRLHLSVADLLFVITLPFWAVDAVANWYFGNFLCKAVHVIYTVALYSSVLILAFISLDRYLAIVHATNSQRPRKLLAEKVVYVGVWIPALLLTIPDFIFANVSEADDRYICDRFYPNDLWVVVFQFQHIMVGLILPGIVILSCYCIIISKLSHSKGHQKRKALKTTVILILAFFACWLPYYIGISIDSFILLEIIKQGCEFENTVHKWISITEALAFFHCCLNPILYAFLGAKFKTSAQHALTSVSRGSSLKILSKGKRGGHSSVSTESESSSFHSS
Protocol: (§1) Plasmid pcDNA3-CXCR4 and mutated pcDNA3-CXCR4 were extracted and transfected into CHO cells using Lipofectamine 2000 according to the manufacturer’s guidelines. The selective medium containing G418 at a concentration of 1.2 mg/ml was applied to isolate stably transfected cells. CHO cells expressing wild-type CXCR4 and mutant CXCR4 were obtained using fluorescence-activated cell sorting (FACS).
(§2) All of the CXCR4 mutants were prepared using PCR technology. Briefly, pairs of asymmetrical primers containing the desired amino acid mutations (Supplementary Tables S1 and S2), each complementary to opposite strands of the pcDNA3–CXCR4, were designed for amplification by Q5® High-Fidelity DNA polymerase and the generation of mutated constructs. The methylated pcDNA3–CXCR4 templates were digested by DpnI. The mutated pcDNA3–CXCR4 was transformed into competent E. coli TOP10 for long-term storage and amplification.
(§3) The procedure for the CXCR4 competitive binding experiments was published previously. Briefly, CXCR4 antibody 12G5 (250 ng/ml) was incubated with 5 × 10^5 cells and varying concentrations of unlabeled compounds in a final volume of 100 μl of assay buffer (PBS with 0.5% BSA and 0.05% NaN3) in 96-well plates for 40 min on ice, after being washed with assay buffer once. The cells were incubated with FITC-conjugated second antibody IgG for 30 min on ice, then washed with assay buffer three times. The fluorescence intensity was measured for excitation at 485 nm and emission at 535 nm using multimode plate reader (PerkinElmer). The IC50 values were calculated using graphpad Prism 7. Experiments were performed at least three times.

CXCR4 [1] = details: previous studies by others; read-out: IC50, inhibition of calcium mobilization; cited from earlier work
Text: To understand the receptor–ligand recognition mechanism involving CXCR4 and its antagonists, here in this study we conducted a series of comparative analyses of the biological activities and CXCR4 binding sites of eleven known CXCR4 antagonists, including the three mentioned above, using cell-based bioassays, CXCR4 site-directed mutagenesis and computer-aided molecular modeling.

CXCR4 W94A = target: T2, CXCR4 W94A (Homo sapiens, UniProt P61073, W94A); assay: Competitive binding to CXCR4 mutant W94A (12G5, CHO cells); details: TM2, class of reduction vs wild-type CXCR4, 12G5 competition, averages of at least three independent experiments
T2 construct: expressed in transfected cells
T2 sequence (P61073 whole entry W94A): as the sequence (P61073 whole entry N119A) above, with W94A, A119N counted along it
Protocol: as §1, §2, §3

CXCR4 D262N = target: T3, CXCR4 D262N (Homo sapiens, UniProt P61073, D262N); assay: Competitive binding to CXCR4 mutant D262N (12G5, CHO cells); details: TM6, class of reduction vs wild-type CXCR4, 12G5 competition, averages of at least three independent experiments
T3 construct: expressed in transfected cells
T3 sequence (P61073 whole entry D262N): as the sequence (P61073 whole entry N119A) above, with A119N, D262N counted along it
Protocol: as §1, §2, §3

CXCR4 E288A = target: T4, CXCR4 E288A (Homo sapiens, UniProt P61073, E288A); assay: Competitive binding to CXCR4 mutant E288A (12G5, CHO cells); details: TM7, class of reduction vs wild-type CXCR4, 12G5 competition, averages of at least three independent experiments
T4 construct: expressed in transfected cells
T4 sequence (P61073 whole entry E288A): as the sequence (P61073 whole entry N119A) above, with A119N, E288A counted along it
Protocol: as §1, §2, §3

CXCR4 [2] = target: T5, CXCR4 (Homo sapiens, UniProt P61073); assay: CXCR4-mediated internalization assay, CHO cells expressing CXCR4-EGFP (confocal); assay type: cell-based; parameters: expressed in transfected cells; details: same concentrations as in calcium mobilization assay; 50 nM SDF-1α; compared with their effect on calcium mobilization
T5 sequence (P61073 whole entry): as the sequence (P61073 whole entry N119A) above, with A119N counted along it
Protocol: Figure 3 The inhibitory effect of the antagonists on CXCR4 internalization CHO cells expressed CXCR4-EGFP conjugates were seeded in 96-well plate with glass bottom. Untreated cells were used as a control. Cells were pre-treated with or without CXCR4 antagonists and internalized with 50 nM SDF-1α (scale bar: 5 μm). The concentrations of the antagonists used were the same as those for the calcium mobilization assay shown above. The data shown were representative of three independent experiments.
CXCR4 and EGFP were amplified using a primer shown in Supplementary Table S1. The pcDNA3 vector was digested by restriction-enzyme EcoR1 and Apa1. CXCR4 was digested by restriction-enzyme EcoR1 and Xba1. EGFP was digested by restriction-enzyme Xba1 and Apa1. CXCR4–EGFP conjugate was constructed by ligation of three DNA fragments using T4 ligase. The vector containing CXCR4 ligated EGFP at the C-terminus was transfected and expressed in CHO cells in 100 μl DMEM medium supplemented with 2% FBS at 1 × 10^5/ml which was seeded in 96-well black plate glass bottom and incubated at 37°C overnight. Following incubation with tested compounds for 10 min, 50 nM of SDF-1α was added to each well and the internalized CXCR4 was observed using a confocal microscopy (Zeiss LSM880).

CXCR4 [3] = target: T5, CXCR4; parameters: expressed in transfected cells; details: previously published result; ref 42 (table footnote; text b13 cites 46); read-out: IC50 (nM), inhibition of 12G5 binding to CXCR4; cited from earlier work
Text: Table 1 Sequences and structures of eleven antagonists | column: IC50 (nM)

Compound | Competitive receptor binding activity, CXCR4 N119A (CXCR4 N119A) | pIC50 (CXCR4 [1]) | Competitive receptor binding activity, CXCR4 W94A (CXCR4 W94A) | Competitive receptor binding activity, CXCR4 D262N (CXCR4 D262N) | Competitive receptor binding activity, CXCR4 E288A (CXCR4 E288A) | Effect on blocking CXCR4 endocytosis (in words) (CXCR4 [2]) | IC50 (CXCR4 [3])
c1cc(CN2CCCNCCNCCCNCC2)ccc1CN1CCCNCCNCCCNCC1 [AMD3100] | +++ | […] | – | – | – | – | –
NCCCCN(Cc1nc2ccccc2[nH]1)[C@H]1CCCc2cccnc21 [AMD11070] | +++ | 8.05 | ++ (10–29% reduction compared with wild-type CXCR4) | +++ | – | – | –
CC(C)C[C@@H](N)C(=O)NCC(=O)N[C@H](C)C(=O)N[C@H](CO)C(=O)N[C@H](Cc1c[nH]c2ccccc12)C(=O)N[C@H](Cc1c[nH]cn1)C(=O)N[C@H](CCCNC(=N)N)C(=O)N1CCC[C@@H]1C(=O)N[C@H](CC(=O)O)C(=O)N[C@H](CCCCN)C(=O)NCCCC[C@@H](NC(=O)[C@H]1CCCN1C(=O)[C@@H](CC(C)C)NC(=O)[C@H]1CCCN1C(=O)[C@@H](CCCNC(=N)N)NC(=O)[C@@H](CCCCN)NC(=O)[C@@H](CCC(N)=O)NC(=O)[C@@H](Cc1ccc(O)cc1)NC(=O)CNC(=O)[C@@H](CC(C)C)NC(=O)[C@@H](CS)NC(=O)[C@@H](CS)NC(=O)[C@@H](CCCCN)NC(=O)[C@@H](CC(=O)O)NC(=O)[C@H]1CCCN1C(=O)[C@@H](CCCNC(=N)N)NC(=O)[C@@H](Cc1c[nH]cn1)NC(=O)[C@@H](Cc1c[nH]c2ccccc12)NC(=O)[C@@H](CO)NC(=O)[C@@H](C)NC(=O)CNC(=O)[C@H](N)CC(C)C)C(=O)O [HC4319] (I: H-[dL]G[dA][dS][dW][dH][dR][dP][dD][dK][dC][dC][dL]G[dY][dQ][dK][dR][dP][dL][dP][dK]-OH / II: H-[dL]G[dA][dS][dW][dH][dR][dP][dD][dK]; amide I:22-II:C; N-terminus and C-terminus assumed) | – | – | – | ++ (10–29% reduction compared with wild-type CXCR4) | + (30–60% reduction compared with wild-type CXCR4) | – | –
CC(C)NCCCC[C@H](NC(=O)[C@H]1CCC(=O)N[C@@H](Cc2ccccc2)C(=O)N[C@@H](Cc2ccc(O)cc2)C(=O)N[C@@H](CCCCNC(C)C)C(=O)N[C@H](CCCNC(=N)N)C(=O)N[C@@H](Cc2ccc3ccccc3c2)C(=O)NCC(=O)N1)C(N)=O [LY2510924] (FY[Lys(iPr)][dR][2Nal]G[dE][Lys(iPr)]-NH2; lactam N-7 (inferred)) | + (30–60% reduction compared with wild-type CXCR4) | – | – | +++ | – | lessened effect | –
I: [dL]G[dA][dS][dW][dH][dR][dP][dD][dK][dC][dC][dL]G[dY][dQ][dK][dR][dP][dL][dP] / II: [dL]G[dA][dS][dW][dH][dR][dP][dD][dK][dC][dC][dL]G[dY][dQ][dK][dR][dP][dL][dP] (disulfide I:11-II:11, I:12-II:12) [DV1 dimer] | + (30–60% reduction compared with wild-type CXCR4) | – | + (30–60% reduction compared with wild-type CXCR4) | + (30–60% reduction compared with wild-type CXCR4) | + (30–60% reduction compared with wild-type CXCR4) | lessened effect | –
LGASWHRPDKCCLGYQKRPLPQVLLSSWYPTSQLCSKPGVIFLTKRGRQVCADKSKDWVKKLMQQLPVTAR [vMIP-II, viral macrophage-inflammatory protein-II, full-length natural chemokine antagonist produced by human herpesvirus-8; recombinant from Peprotech] | ++ (10–29% reduction compared with wild-type CXCR4) | – | + (30–60% reduction compared with wild-type CXCR4) | +++ | +++ | – | 10 nM
